Experimental data reported in patent publication US12583854B2, “KRAS G12C inhibitors and methods of using the same” (Amgen Inc., priority 2018, dated 2026).

These compounds were tested against GDP-bound KRAS protein (aa 1-169), containing both G12C and C118A amino acid substitutions (Homo sapiens, UniProt P01116, C118A/G12C) (assay: Coupled Nucleotide Exchange Assay). Details: 5 min compound pre-incubation; SOS-mediated nucleotide exchange, AlphaScreen.
Format: biochemical
Protocol: Following compound pre-incubation, purified SOS protein (aa 564-1049) and GTP (Roche 10106399001) were added to the assay wells and incubated for an additional 30 min. To determine the extent of inhibition of SOS-mediated nucleotide exchange, purified GST-tagged cRAF (aa 1-149), nickel chelate AlphaLISA acceptor beads (PerkinElmer AL108R), and AlphaScreen glutathione donor beads (PerkinElmer 6765302) were added to the assay wells and incubated for 10 minutes. The assay plates were then read on a PerkinElmer EnVision Multilabel Reader, using AlphaScreen® technology, and data were analyzed using a 4-parameter logistic model to calculate IC50 values.

Sequence of GDP-bound KRAS protein (aa 1-169), containing both G12C and C118A amino acid substitutions (P01116 1-169 isoform P01116-2 G12C/C118A): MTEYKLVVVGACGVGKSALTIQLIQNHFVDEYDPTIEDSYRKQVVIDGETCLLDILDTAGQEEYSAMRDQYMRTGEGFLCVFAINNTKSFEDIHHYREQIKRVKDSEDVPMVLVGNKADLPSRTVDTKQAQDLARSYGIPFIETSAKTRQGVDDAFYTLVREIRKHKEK

Compound	Coupled exchange IC50 (5 min; μM) [µM]
C=CC(=O)N1CCN(c2c(C#N)c(=O)n(-c3c(N(C)C)ccnc3C(C)C)c3nc(-c4ccccc4F)c(Cl)cc23)CC1 (single isomer, unassigned) [Example 8.5, 4-(4-acryloylpiperazin-1-yl)-6-chloro-1-(4-(dimethylamino)-2-isopropylpyridin-3-yl)-7-(2-fluorophenyl)-2-oxo-1,2-dihydro-1,8-naphthyridine-3-carbonitrile]	3.26
C=CC(=O)N1CCN(c2c(C#N)c(=O)n(-c3c(C(C)C)ccnc3N(C)C)c3nc(-c4ccccc4F)c(Cl)cc23)CC1 (single isomer, unassigned) [Example 8.7, 4-(4-acryloylpiperazin-1-yl)-6-chloro-1-(2-(dimethylamino)-4-isopropylpyridin-3-yl)-7-(2-fluorophenyl)-2-oxo-1,2-dihydro-1,8-naphthyridine-3-carbonitrile]	1.55
C=CC(=O)N1CCN(c2c(C#N)c(=O)n(-c3c(C)ccnc3C(C)C)c3nc(Cl)c(Cl)cc23)CC1 [Example 9.2, 4-(4-acryloylpiperazin-1-yl)-6,7-dichloro-1-(2-isopropyl-4-methylpyridin-3-yl)-2-oxo-1,2-dihydro-1,8-naphthyridine-3-carbonitrile]	36
C=CC(=O)N1CCN(c2c(C#N)c(=O)n(-c3c(C(C)C)ncnc3C(C)C)c3nc(-c4ccccc4CN(C)C)c(Cl)cc23)CC1 [Example 1, 4-(4-Acryloylpiperazin-1-yl)-6-chloro-1-(4,6-diisopropylpyrimidin-5-yl)-7-(2-((dimethylamino)methyl)phenyl)-2-oxo-1,2-dihydro-1,8-naphthyridine-3-carbonitrile]	4.13
C=CC(=O)N1CCN(c2c(C#N)c(=O)n(-c3c(C(C)C)ccnc3C(C)C)c3nc(-c4ccccc4F)c(F)cc23)CC1 [Example 10.5, 4-(4-acryloylpiperazin-1-yl)-1-(2,4-diisopropylpyridin-3-yl)-6-fluoro-7-(2-fluorophenyl)-2-oxo-1,2-dihydro-1,8-naphthyridine-3-carbonitrile]	0.36
C=CC(=O)N1CCN(c2c(C#N)c(=O)n(-c3c(C)ccnc3C(C)C)c3nc(-c4ccccc4F)c(Cl)cc23)C[C@H]1C (single isomer, unassigned) [Example 6.6]	0.92
C=CC(=O)N1C[C@H](C)N(c2c(C#N)c(=O)n(-c3c(C)ccnc3C(C)C)c3nc(-c4ccccc4F)c(Cl)cc23)C[C@H]1C (single isomer, unassigned) [Example 7.4]	17.6
C=CC(=O)N1CCN(c2c(C#N)c(=O)n(-c3c(CN(C)C)ccnc3C(C)C)c3nc(-c4ccccc4F)c(Cl)cc23)CC1 [Example 2.1, 4-(4-acryloylpiperazin-1-yl)-6-chloro-1-(4-((dimethylamino)methyl)-2-isopropylpyridin-3-yl)-7-(2-fluorophenyl)-2-oxo-1,2-dihydro-1,8-naphthyridine-3-carbonitrile]	0.18
C=CC(=O)N1CCN(c2c(C#N)c(=O)n(-c3c(C)ccnc3C(C)C)c3nc(-c4ccccc4F)c(Cl)cc23)CC1 [Example 6.4, 4-(4-acryloylpiperazin-1-yl)-6-chloro-7-(2-fluorophenyl)-1-(2-isopropyl-4-methylpyridin-3-yl)-2-oxo-1,2-dihydro-1,8-naphthyridine-3-carbonitrile]	0.73
C=CC(=O)N1CCN(c2c(C#N)c(=O)n(-c3c(C(C)C)ccnc3C(C)C)c3nc(-c4ccccc4F)c(F)cc23)CC1 [Example 10.1, 4-(4-acryloylpiperazin-1-yl)-1-(2,4-diisopropylpyridin-3-yl)-6-fluoro-7-(2-fluorophenyl)-2-oxo-1,2-dihydro-1,8-naphthyridine-3-carbonitrile]	0.65
C=CC(=O)N1CCN(c2c(C#N)c(=O)n(-c3c(N(C)C)ccnc3C(C)C)c3nc(-c4ccccc4F)c(Cl)cc23)CC1 (single isomer, unassigned) [Example 8.3, 4-(4-acryloylpiperazin-1-yl)-6-chloro-1-(4-(dimethylamino)-2-isopropylpyridin-3-yl)-7-(2-fluorophenyl)-2-oxo-1,2-dihydro-1,8-naphthyridine-3-carbonitrile]	0.42
C=CC(=O)N1CCN(c2c(C#N)c(=O)n(-c3c(C(C)C)ccnc3C(C)C)c3nc(-c4ccccc4C)c(F)cc23)CC1 [Example 10, 4-(4-Acryloylpiperazin-1-yl)-1-(2,4-diisopropylpyridin-3-yl)-6-fluoro-2-oxo-7-(o-tolyl)-1,2-dihydro-1,8-naphthyridine-3-carbonitrile]	0.94
C=CC(=O)N1CCN(c2c(C#N)c(=O)n(-c3c(C)ccnc3C(C)C)c3nc(-c4ccccc4F)c(Cl)cc23)C[C@@H]1C [Example 6.1, (S)-4-(4-acryloyl-3-methylpiperazin-1-yl)-6-chloro-7-(2-fluorophenyl)-1-(2-isopropyl-4-methylpyridin-3-yl)-2-oxo-1,2-dihydro-1,8-naphthyridine-3-carbonitrile]	1.57
C=CC(=O)N1CCN(c2c(C#N)c(=O)n(-c3c(C(C)C)ccnc3C(C)C)c3nc(-c4ccccc4F)c(F)cc23)CC1 [Example 10.4, 4-(4-acryloylpiperazin-1-yl)-1-(2,4-diisopropylpyridin-3-yl)-6-fluoro-7-(2-fluorophenyl)-2-oxo-1,2-dihydro-1,8-naphthyridine-3-carbonitrile]	0.44
C=CC(=O)N1CCN(c2c(C#N)c(=O)n(-c3c(C)ccnc3C(C)C)c3nc(-c4ccccc4C(C)C)c(Cl)cc23)CC1 (single isomer, unassigned) [Example 11.2, 4-(4-acryloylpiperazin-1-yl)-6-chloro-1-(2-isopropyl-4-methylpyridin-3-yl)-7-(2-isopropylphenyl)-2-oxo-1,2-dihydro-1,8-naphthyridine-3-carbonitrile]	1.96
C=CC(=O)N1[C@H](C)CN(c2c(C#N)c(=O)n(-c3c(C)ccnc3C(C)C)c3nc(-c4ccccc4F)c(Cl)cc23)C[C@@H]1C (single isomer, unassigned) [Example 7.6]	0.32
C=CC(=O)N1CCN(c2c(C#N)c(=O)n(-c3c(CN(C)C)ccnc3C(C)C)c3nc(-c4ccccc4F)c(Cl)cc23)CC1 [Example 2, 4-(4-Acryloylpiperazin-1-yl)-6-chloro-1-(4-((dimethylamino)methyl)-2-isopropylpyridin-3-yl)-7-(2-fluorophenyl)-2-oxo-1,2-dihydro-1,8-naphthyridine-3-carbonitrile]	0.061
C=CC(=O)N1CCN(c2c(C#N)c(=O)n(-c3c(C(C)C)ccnc3C(C)C)c3nc(-c4ccccc4C)c(F)cc23)CC1 [Example 10.2, 4-(4-acryloylpiperazin-1-yl)-1-(2,4-diisopropylpyridin-3-yl)-6-fluoro-2-oxo-7-(o-tolyl)-1,2-dihydro-1,8-naphthyridine-3-carbonitrile]	0.45
C=CC(=O)N1CCN(c2c(C#N)c(=O)n(-c3c(C(C)C)ncnc3C(C)C)c3nc(Cl)c(Cl)cc23)CC1 [Example 9.1, 4-(4-acryloylpiperazin-1-yl)-6,7-dichloro-1-(4,6-diisopropylpyrimidin-5-yl)-2-oxo-1,2-dihydro-1,8-naphthyridine-3-carbonitrile]	25.1
